Data: patent publication US20220296565A1, “Pharmaceutical compositions of Ovatodiolide and the use thereof” (priority 2019, published 2022)

Key:
[1] = system: SiHa HPV 16 positive cervical cancer cells; assay: MTT assay, SiHa cells; format: cell-based, human; details: 72 h
Protocol: (§1) SiHa and HeLa cervical cancer cells and Human Dermal Fibroblasts (HDF) were cultured in DMEM (Sigma-Aldrich, St Louis, Mo., USA). The medium was supplemented with 10% fetal calf serum (BioClear, Wiltshire, UK), 2 mM L-glutamin, 100 U/ml penicillin, 100 μg/ml streptomycin (Sigma-Aldrich).
(§2) The MTT assay is a colorimetric assay widely used to study cell viability. It is based on the ability of NAD(P)H-dependent cellular oxidoreductase enzymes to reduce the MTT tetrazolium dye. The cells were treated with 0, 5, 10, 20 & 40 μM of OVT & AA for 72 h and then MTT was added and cytotoxicity was analyzed by a plate reader.
(§3) HPV-positive cervical cancer cells, SiHa, Hela cells, patient-derived HPV positive head and neck cancer cells and non-cancer human fibroblasts were treated with OVT at the dose range of 0, 5, 10, 20 and 40 μM and subjected to MTT assay and IC50 values were determined.

[2] = system: HeLa HPV 18 positive cervical cancer cells; assay: MTT assay, HeLa cells; format: cell-based, human; details: 72 h
Protocol: as §1, §2, §3

[3] = system: UT-SCC 60A patient derived HPV positive Head and Neck cancer cells; assay: MTT assay, UT-SCC 60A; format: cell-based, human; details: 72 h
Protocol: as §2, §3

[4] = system: UT-SCC 60B patient derived HPV positive Head and Neck cancer cells; assay: MTT assay, UT-SCC 60B; format: cell-based, human; details: 72 h
Protocol: as §2, §3

[5] = system: UT-SCC 65 patient derived HPV positive Head and Neck cancer cells; assay: MTT assay, UT-SCC 65; format: cell-based, human; details: UT-SCC 65, 72 h
Protocol: as §2, §3

[6] = system: UT-SCC 69 patient derived HPV positive Head and Neck cancer cells; assay: MTT assay, UT-SCC 69; format: cell-based, human; details: UT-SCC 69, 72 h
Protocol: as §2, §3

[7] = system: UT-SCC 102 patient derived HPV positive Head and Neck cancer cells; assay: MTT assay, UT-SCC 102; format: cell-based, human; details: UT-SCC 102, 72 h
Protocol: as §2, §3

[8] = system: non-cancer human fibroblast cells; assay: MTT assay, non-cancer human fibroblasts; format: cell-based; details: 72 h
Protocol: as §2, §3

SiHa cells [9] = assay: Activated caspase-3 by flow cytometry; format: cell-based, human
Protocol: SiHa cells were treated with 0, 20 & 40 μM AA or OVT or solvent control for 24 & 48 h. Activated caspase-3 in cells was labeled with phyco-erythrin-conjugated antibody according to manufacturer's protocol (PE Active Caspase-3 Apoptosis Kit; BD Pharmingen, San Diego, Calif.) and analyzed by FACSCalibur flow cytometer (FL-2, FSC, BD Pharmingen).
We then incubated the cells with 0, 20 & 40 μM AA & OVT 24 and 48 hours, and determined the percentage of cells that contained activated caspase-3 as a measure of apoptosis.

[10] = system: K87 primary skin fibroblast cells; assay: MTT assay, K87 fibroblasts; format: cell-based, human; details: 72 h
Protocol: as §2, §3

[11] = system: K74 primary skin fibroblast cells; assay: MTT assay, K74 fibroblasts; format: cell-based, human; details: 72 h
Protocol: as §2, §3

SiHa cells [12] = assay: Phase contrast microscopy of SiHa cells; format: cell-based, human; details: 40 μM
Source text: In order to examine the mechanism underlying the previously reported cytotoxicity of OVT, we investigated if OVT would induce apoptotic death of cultured SiHa cervical cancer cells.

SiHa cells [13] = assay: Cell-IQ high content imaging, proliferation of SiHa; format: cell-based, human; details: various doses, till 72 h
Protocol: (§4) SiHa cells—HPV 16 positive cervical cancer cell line; HeLa—HPV 18 positive cervical cancer cell line. […] Numbers 1-6 on the x-axis indicate 12 h intervals. The area of the plate that cells cover is indicated on the y-axis (arbitrary number of units).
(§5) The Cell-IQ Real-time imaging provides information on how the compounds are affecting cell morphology and cell proliferation at various doses up to 72 h. A rigorous image analysis protocol was developed to assess the effects of the compounds on cell proliferation.
(§6) The cells were imaged by high content imaging in Cell-IQ and the proliferation of the cells was observed till 72 h.

HeLa cells = assay: Cell-IQ high content imaging, proliferation of HeLa; format: cell-based, human; details: various doses, till 72 h
Protocol: as §4, §5, §6

SiHa cells [14] = assay: Western blotting of SiHa cell lysates; format: cell-based, human
Protocol: Whole cell lysates were prepared by lysing the cells in Laemmli sample buffer (Laemmli, 1970) and boiling the samples for 10 min after which proteins were separated in 12.5-15% SDS-PAGE. Western blotting was performed using antibodies against caspase 3 (Cell Signaling), HPV16 E6, E7 (Santa Cruz Biotechnology, Inc, Santa Cruz, Calif.), and […] (clone AC-40; Sigma-Aldrich). Horseradish peroxidase-conjugated secondary antibodies were obtained from Southern Biotechnology Associates (Birmingham, Ala.), Promega (Madison, Wis.) and Amersham Biosciences (Freiburg, Germany). The results were visualized using the ECL method (Amersham Biosciences) on X-ray film. The presented Western blot results are representative of at least three independent experiments. SiHa cervical cancer cells have been transformed by high-risk human papillomavirus (HPV). As E6 and E7 play such critical roles in SiHa cell transformation, the expression of these viral proteins was examined.

Molecule | IC50 [1] | IC50 [2] | IC50 [3] | IC50 [4] | IC50 [5] | IC50 [6] | IC50 [7] | toxicity to non-cancer human fibroblast cells [8] | activation of caspase-3 (SiHa cells [9]; 40 μM, after 48 h) | IC50 [10] | IC50 [11] | cell death in SiHa cells (SiHa cells [12]) | effect on cell morphology (SiHa cells [12]; 72 hours, SiHa) | cell proliferation (SiHa cells [13]) | cell proliferation (HeLa cells) | activation of caspase-3 (SiHa cells [9]; 20 μM, after 24 h, compared with 40 μM AA after 48 h) | activation of caspase-3 compared to AA at the same concentration (SiHa cells [9]; 40 μM, after 48 h) | cleavage of caspase-3 (SiHa cells [14]; 20-40 μM) | HPV E6 and E7 viral proteins (SiHa cells [14]; Western blot) | cIAP2 protein level (SiHa cells [14]; Western blot)
C=C1C(=O)OC2/C=C(/C)CC/C=C(\C(=O)O)CC/C=C(\C)CCC12 (stereo not drawn) [Anisomelic acid (AA), Anisomelic acid, reference compound] | 32.1 µM | 33.2 µM | 18 µM | 22.8 µM | 42.8 µM | 23.9 µM | 28.2 µM | not toxic at all | marked activation |  |  |  |  |  |  |  |  |  |  | 
Ovatodiolide | 10.7 µM | 10.7 µM | 5.53 µM | 3.33 µM | 14.1 µM | 0.859 µM | 7.73 µM |  |  | 19.7 µM | 13.2 µM | induced cell death | clear effect on cell morphology | inhibited the cell proliferation | inhibited the cell proliferation | higher activation | almost doubled | induced the cleavage | downregulation | downregulation
